The values below come from ChEMBL document CHEMBL1124423, “Synthesis of highly mu and delta opioid receptor selective peptides containing a photoaffinity group” (J Med Chem, 1989).

For orientation: IC50 means the midpoint of a concentration-inhibition curve. Low readings indicate inhibition by little substance, high ones a need for much substance. For orientation: inhibition means how much of the control response was suppressed. High values mean a response far below the control, low ones a response near the control.

For assay [1], the species on record is Mus musculus. In words: Concentration that reduced the response by 50% by delta selective analogue was assessed in mouse vas deferens assay; NA is no activity at 10e-5 M. It is filed as functional.
The target of the next assay is Mu-type opioid receptor (Rattus norvegicus, UniProt P33535). The assay can be described thus: Binding potency of compound in competition with [3H]CTOP for Opioid receptor mu 1 tested in rat brain membrane. It is filed as cell membranes.
Sequence of Mu-type opioid receptor (P33535 whole entry): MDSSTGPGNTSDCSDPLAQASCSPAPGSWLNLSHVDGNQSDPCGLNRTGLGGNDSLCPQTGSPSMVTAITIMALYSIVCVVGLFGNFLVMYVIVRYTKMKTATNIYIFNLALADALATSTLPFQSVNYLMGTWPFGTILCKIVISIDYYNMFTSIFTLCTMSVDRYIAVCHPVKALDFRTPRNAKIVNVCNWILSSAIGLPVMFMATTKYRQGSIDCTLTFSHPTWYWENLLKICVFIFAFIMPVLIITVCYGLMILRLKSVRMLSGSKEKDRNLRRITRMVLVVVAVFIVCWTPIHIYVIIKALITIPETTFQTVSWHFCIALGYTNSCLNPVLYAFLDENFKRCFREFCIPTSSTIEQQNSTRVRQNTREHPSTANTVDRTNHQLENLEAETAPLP
Assay [2] has as its target Delta-type opioid receptor (Rattus norvegicus, UniProt P33533). The assay can be described thus: Binding potency of compound in competition with [3H]DPDPE for Opioid receptor delta 1 tested in rat brain membrane. It is filed as cell membranes.
Assay [3] is filed under the species Cavia porcellus. The assay can be described thus: Inhibition of response by delta receptor selective analogue at 300 nM was assessed in Guinea pig ileum assay. It is filed as functional.
For assay [4], the species on record is Cavia porcellus. The assay can be described thus: Inhibition of response by delta receptor selective analogue at 10000 nM was assessed in Guinea pig ileum assay. It is filed as functional.
The species named for assay [5] is Mus musculus. The assay can be described thus: Concentration that reduced the response by 50% by delta receptor selective analogue was assessed in mouse vas deferens assay; NA is no activity at 10e-5 M. It is filed as functional.
The species named for assay [6] is Cavia porcellus. The assay can be described thus: Affinity of mu receptor selective analogue in Guinea pig ileum assay expressed as pA2. It is filed as functional. The conditions noted are these: read-out: pA2 (converted).
For assay [7], the species on record is Cavia porcellus. The assay can be described thus: Inhibition of response by delta receptor selective analogue at 3000 nM was assessed in Guinea pig ileum assay. It is filed as functional.
For assay [8], the target named is Opioid receptors; mu & delta (Homo sapiens) (UniProt P41143+P35372). In words: Selectivity ratio for binding to mu vs delta opioid receptor. It is filed as protein assay.
Sequence of Opioid receptors; mu & delta (Homo sapiens) (P35372 whole entry, looked up): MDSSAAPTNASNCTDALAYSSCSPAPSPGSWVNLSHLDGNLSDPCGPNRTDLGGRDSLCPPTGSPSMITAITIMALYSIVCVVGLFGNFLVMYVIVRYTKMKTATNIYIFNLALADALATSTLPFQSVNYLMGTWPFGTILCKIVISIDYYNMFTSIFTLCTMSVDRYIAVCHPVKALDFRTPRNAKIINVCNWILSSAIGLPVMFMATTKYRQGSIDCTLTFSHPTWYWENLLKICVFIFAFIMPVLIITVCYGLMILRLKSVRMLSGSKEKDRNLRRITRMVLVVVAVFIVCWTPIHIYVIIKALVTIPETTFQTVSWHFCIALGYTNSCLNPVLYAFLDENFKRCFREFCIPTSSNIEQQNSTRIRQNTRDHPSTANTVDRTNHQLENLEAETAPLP
Sequence of Opioid receptors; mu & delta (Homo sapiens) (P41143 whole entry, looked up): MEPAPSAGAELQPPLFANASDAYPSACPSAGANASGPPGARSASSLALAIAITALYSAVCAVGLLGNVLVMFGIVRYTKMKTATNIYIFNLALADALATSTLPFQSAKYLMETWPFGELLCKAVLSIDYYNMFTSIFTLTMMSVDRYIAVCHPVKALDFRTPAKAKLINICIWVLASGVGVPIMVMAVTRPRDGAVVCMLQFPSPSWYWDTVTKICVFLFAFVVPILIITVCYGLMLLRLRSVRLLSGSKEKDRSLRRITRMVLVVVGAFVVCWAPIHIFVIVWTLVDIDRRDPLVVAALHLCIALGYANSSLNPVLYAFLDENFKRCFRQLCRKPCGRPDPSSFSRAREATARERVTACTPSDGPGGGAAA
For assay [9], the species on record is Mus musculus. The assay can be described thus: Concentration that reduced the response by 50% by delta selective analogue was assessed in mouse vas deferens assay. It is filed as functional.
For assay [10], the species on record is Cavia porcellus. The assay can be described thus: Concentration that reduced the response by 50% by delta receptor selective analogue was assessed in Guinea pig ileum assay. It is filed as functional.

Sequence of Delta-type opioid receptor (P33533 whole entry): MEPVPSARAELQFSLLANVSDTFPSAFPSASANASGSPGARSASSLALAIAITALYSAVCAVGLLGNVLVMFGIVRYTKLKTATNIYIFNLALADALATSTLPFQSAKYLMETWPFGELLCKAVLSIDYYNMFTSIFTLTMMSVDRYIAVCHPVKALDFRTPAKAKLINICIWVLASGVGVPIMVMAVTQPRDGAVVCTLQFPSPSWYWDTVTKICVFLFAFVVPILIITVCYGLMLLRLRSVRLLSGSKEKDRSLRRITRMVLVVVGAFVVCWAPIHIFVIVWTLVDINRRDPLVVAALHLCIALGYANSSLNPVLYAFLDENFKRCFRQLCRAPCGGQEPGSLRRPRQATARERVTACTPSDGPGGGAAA

Take `C[C@@H](O)[C@H](NC(=O)[C@H]1NC(=O)[C@H]([C@@H](C)O)NC(=O)[C@H](CCCCN)NC(=O)[C@@H](Cc2c[nH]c3ccccc23)NC(=O)[C@H](Cc2ccc(N=[N+]=[N-])cc2)NC(=O)[C@@H](NC(=O)[C@H](N)Cc2ccccc2)CSSC1(C)C)C(N)=O` [listing 1 of 2 here]: the IC50 entry in the assay filed under Mus musculus [1] is “Not Active”; at Mu-type opioid receptor, 49 nM; in assay [2], 20 µM.

In turn, `C[C@@H](O)[C@H](NC(=O)[C@H]1NC(=O)[C@H]([C@@H](C)O)NC(=O)[C@H](CCCCN)NC(=O)[C@@H](Cc2c[nH]c3ccccc23)NC(=O)[C@H](Cc2ccc(N=[N+]=[N-])cc2)NC(=O)[C@@H](NC(=O)[C@H](N)Cc2ccccc2)CSSC1(C)C)C(N)=O` [listing 2 of 2 here] showed an inhibition at 0.3 µM in the assay listed under Cavia porcellus [3] of 8%.

For the compound `CC1(C)SSC(C)(C)[C@@H](NC(=O)[C@@H](N)Cc2ccc(O)cc2)C(=O)NCC(=O)N[C@@H](Cc2ccc(N=[N+]=[N-])cc2)C(=O)N[C@H]1C(=O)O` [listing 1 of 2 here], in the assay filed under Cavia porcellus [4], the inhibition at 10 µM came to 6%.

Turning to `C[C@@H](O)[C@H](NC(=O)[C@H]1NC(=O)[C@H]([C@@H](C)O)NC(=O)[C@H](CCCCN)NC(=O)[C@@H](Cc2c[nH]c3ccccc23)NC(=O)[C@H](Cc2ccc(O)cc2)NC(=O)[C@@H](NC(=O)[C@H](N)Cc2ccccc2)CSSC1(C)C)C(=O)O`, the IC50 entry in the assay listed under Mus musculus [5] is “Not Active”; at Mu-type opioid receptor, 3 nM; in assay [2] it was 8.4 µM. Besides, the Kb in the assay filed under Cavia porcellus [6] is 79.4 nM.

`C[C@@H](O)[C@H](NC(=O)[C@H]1NC(=O)[C@H]([C@@H](C)O)NC(=O)[C@H](CCCCN)NC(=O)[C@@H](Cc2c[nH]c3ccccc23)NC(=O)[C@H](Cc2ccc(N)cc2)NC(=O)[C@@H](NC(=O)[C@H](N)Cc2ccccc2)CSSC1(C)C)C(N)=O` [listing 1 of 2 here] showed an inhibition at 3 µM in the assay filed under Cavia porcellus [7] of 5%.

As for `C[C@@H](O)[C@H](NC(=O)[C@@H]1NC(=O)[C@H]([C@@H](C)O)NC(=O)[C@@H](CCCCN)NC(=O)[C@@H](Cc2c[nH]c3ccccc23)NC(=O)[C@@H](Cc2ccc(N=[N+]=[N-])cc2)NC(=O)[C@H](NC(=O)[C@@H](N)Cc2ccccc2)CSSC1(C)C)C(N)=O`, the Ratio in assay [8] is 412.

Take `C[C@@H](O)[C@H](NC(=O)[C@@H]1NC(=O)[C@H]([C@@H](C)O)NC(=O)[C@@H](CCCCN)NC(=O)[C@@H](Cc2c[nH]c3ccccc23)NC(=O)[C@@H](Cc2ccc(O)cc2)NC(=O)[C@H](NC(=O)[C@@H](N)Cc2ccccc2)CSSC1(C)C)C(=O)O`: the Ratio in assay [8] was 3230.

On to `CC1(C)SSC(C)(C)[C@@H](NC(=O)[C@@H](N)Cc2ccc(O)cc2)C(=O)NCC(=O)N[C@@H](Cc2ccccc2)C(=O)N[C@H]1C(=O)O`, for which it took 4.3 nM to reach half-maximal inhibition in the assay filed under Mus musculus [9] (IC50).

In turn, `CC1(C)SSC(C)(C)[C@@H](NC(=O)[C@@H](N)Cc2ccc(O)cc2)C(=O)NCC(=O)N[C@@H](Cc2ccc(N=[N+]=[N-])cc2)C(=O)N[C@H]1C(=O)O` [listing 2 of 2 here] showed a half-inhibitory concentration (IC50) in the assay listed under Mus musculus [9] of 9.5 nM.

For the compound `C[C@@H](O)[C@H](NC(=O)[C@H]1NC(=O)[C@H]([C@@H](C)O)NC(=O)[C@H](CCCCN)NC(=O)[C@@H](Cc2c[nH]c3ccccc23)NC(=O)[C@H](Cc2ccc(N)cc2)NC(=O)[C@@H](NC(=O)[C@H](N)Cc2ccccc2)CSSC1(C)C)C(N)=O` [listing 2 of 2 here], the IC50 entry in the assay filed under Mus musculus [1] is “Not Active”; at Mu-type opioid receptor, 500 nM; in [2], over 10 µM.

Regarding `CC1(C)SSC(C)(C)[C@@H](NC(=O)[C@@H](N)Cc2ccc(O)cc2)C(=O)NCC(=O)N[C@@H](Cc2ccc(N)cc2)C(=O)N[C@H]1C(=O)O`, the IC50 is 138 nM in the assay filed under Mus musculus [9] and over 10 µM in the assay listed under Cavia porcellus [10].

For the compound `C[C@@H](O)[C@H](NC(=O)[C@@H]1NC(=O)[C@H]([C@@H](C)O)NC(=O)[C@@H](CCCCN)NC(=O)[C@@H](Cc2c[nH]c3ccccc23)NC(=O)[C@@H](Cc2ccc(N)cc2)NC(=O)[C@H](NC(=O)[C@@H](N)Cc2ccccc2)CSSC1(C)C)C(N)=O`, in [8], the Ratio was over 20.
